± gives the standard deviation of the averaged measurements.
What was measured:
BI-2536 = compound: CC[C@@H]1C(=O)N(C)c2cnc(Nc3ccc(C(=O)NC4CCN(C)CC4)cc3OC)nc2N1C1CCCC1 [BI-2536]; assay: surviving fraction relative to DMSO-only wells; higher = less growth inhibition; conditions: exposure time: 5 days
Summary of the method: (§1)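 For each tumour cell line, log-phase cells were put into 384-well plates at 250–500 cells per well, then after 24 hours exposed continuously for five days to inhibitors at 0.5, 1, 5, 10, 50, 100, 500 and 1000 nM. Viability was assessed by CellTiter-Glo luminescence, with surviving fraction expressed relative to the median of DMSO-only wells. Lines were screened three times and retained only if replicate Pearson r exceeded 0.7 and median Z' exceeded 0.3.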

CANERTINIB = compound: C=CC(=O)Nc1cc2c(Nc3ccc(F)c(Cl)c3)ncnc2cc1OCCCN1CCOCC1 [CANERTINIB]; assay: as above; conditions: exposure time: 5 days
Summary of the method: as §1

Test System	surviving fraction (BI-2536; 0.5 nM)	surviving fraction (BI-2536; 1 nM)	surviving fraction (BI-2536; 5 nM)	surviving fraction (BI-2536; 10 nM)	surviving fraction (BI-2536; 50 nM)	surviving fraction (BI-2536; 100 nM)	surviving fraction (BI-2536; 500 nM)	surviving fraction (BI-2536; 1000 nM)	surviving fraction (CANERTINIB; 0.5 nM)	surviving fraction (CANERTINIB; 1 nM)	surviving fraction (CANERTINIB; 5 nM)	surviving fraction (CANERTINIB; 10 nM)	surviving fraction (CANERTINIB; 50 nM)	surviving fraction (CANERTINIB; 100 nM)	surviving fraction (CANERTINIB; 500 nM)	surviving fraction (CANERTINIB; 1000 nM)
CAL72 BONE	1 ± 0.019	0.742 ± 0.12	0.2 ± 0.021	0.147 ± 0.033	0.12 ± 0.026	0.0987 ± 0.015	0.104 ± 0.019	0.0927 ± 0.009	0.982 ± 0.056	0.989 ± 0.067	0.979 ± 0.058	0.969 ± 0.052	1.02 ± 0.2	1.11 ± 0.037	1.03 ± 0.1	1.08 ± 0.053
MFM223 BREAST	0.818 ± 0.041	0.338 ± 0.017	0.0768 ± 0.0068	0.0932 ± 0.0063	0.137 ± 0.012	0.148 ± 0.012	0.141 ± 0.011	0.106 ± 0.016	0.817 ± 0.075	0.898 ± 0.12	0.84 ± 0.14	0.808 ± 0.01	0.958 ± 0.077	1 ± 0.034	0.874 ± 0.013	0.794 ± 0.029
H23 LUNG	1.09 ± 0.05	1.05 ± 0.048	0.991 ± 0.065	0.446 ± 0.016	0.272 ± 0.015	0.213 ± 0.015	0.16 ± 0.014	0.142 ± 0.0076	0.908 ± 0.038	0.86 ± 0.051	0.742 ± 0.031	0.553 ± 0.032	0.403 ± 0.035	0.3637 ± 0.0035	0.29 ± 0.011	0.252 ± 0.014
DU4475 BREAST	0.997 ± 0.25	1.04 ± 0.051	0.536 ± 0.15	0.233 ± 0.047	0.0763 ± 0.027	0.057 ± 0.015	0.031 ± 0.0053	0.027 ± 0.002	0.819 ± 0.11	0.797 ± 0.088	0.782 ± 0.099	0.742 ± 0.15	0.976 ± 0.12	0.919 ± 0.045	0.79 ± 0.18	0.596 ± 0.13
22RV1 PROSTATE	1.01 ± 0.1	0.973 ± 0.029	0.1 ± 0.016	0.085 ± 0.012	0.159 ± 0.0085	0.221 ± 0.012	0.216 ± 0.013	0.213 ± 0.014	0.981 ± 0.038	0.913 ± 0.091	0.985 ± 0.033	1.08 ± 0.25	1.05 ± 0.24	1.01 ± 0.11	1.12 ± 0.22	0.905 ± 0.14
MDAMB157 BREAST	0.912 ± 0.041	0.62 ± 0.19	0.0967 ± 0.0025	0.0937 ± 0.013	0.093 ± 0.0095	0.157 ± 0.033	0.224 ± 0.013	0.255 ± 0.0076	0.847 ± 0.035	0.86 ± 0.088	0.858 ± 0.048	0.936 ± 0.049	0.921 ± 0.067	0.844 ± 0.089	0.753 ± 0.013	0.658 ± 0.051
HCC202 BREAST	0.938 ± 0.18	0.952 ± 0.097	0.421 ± 0.034	0.345 ± 0.037	0.538 ± 0.033	0.502 ± 0.12	0.379 ± 0.044	0.306 ± 0.062	0.939 ± 0.12	0.93 ± 0.18	0.867 ± 0.21	0.682 ± 0.011	0.602 ± 0.19	0.494 ± 0.053	0.333 ± 0.057	0.177 ± 0.051
HCT15 LARGE INTESTINE	1.08 ± 0.044	1.04 ± 0.011	1.07 ± 0.026	0.887 ± 0.032	0.334 ± 0.048	0.0687 ± 0.014	0.069 ± 0.004	0.0617 ± 0.0076	0.868 ± 0.082	0.78 ± 0.053	0.775 ± 0.11	0.79 ± 0.064	0.852 ± 0.035	0.869 ± 0.068	0.843 ± 0.079	0.841 ± 0.076
BT20 BREAST	1.01 ± 0.19	0.758 ± 0.17	0.0813 ± 0.018	0.0613 ± 0.031	0.0983 ± 0.025	0.109 ± 0.031	0.135 ± 0.056	0.154 ± 0.052	0.691 ± 0.0098	0.712 ± 0.017	0.654 ± 0.075	0.609 ± 0.058	0.908 ± 0.035	0.899 ± 0.084	0.82 ± 0.057	0.824 ± 0.069
SUM149 BREAST	1.05 ± 0.054	0.906 ± 0.091	0.122 ± 0.012	0.0487 ± 0.0035	0.0743 ± 0.0057	0.0903 ± 0.014	0.084 ± 0.01	0.0603 ± 0.0065	0.898 ± 0.078	0.832 ± 0.052	0.627 ± 0.029	0.531 ± 0.04	0.451 ± 0.053	0.424 ± 0.072	0.324 ± 0.037	0.279 ± 0.037
HCC1954 BREAST	0.883 ± 0.13	0.766 ± 0.2	0.245 ± 0.035	0.235 ± 0.057	0.433 ± 0.0095	0.781 ± 0.0014	0.89 ± 0.035	0.699 ± 0.014	0.376 ± 0.025	0.336 ± 0.0092	0.382 ± 0.014	0.316 ± 0.014	0.263 ± 0.011	0.258 ± 0.015	0.136 ± 0.016	0.117 ± 0.0071
G292 BONE	0.9403 ± 0.0023	0.659 ± 0.042	0.254 ± 0.012	0.23 ± 0.013	0.161 ± 0.011	0.128 ± 0.0057	0.0832 ± 0.0094	0.0727 ± 0.0063	0.914 ± 0.061	0.949 ± 0.028	0.966 ± 0.055	0.957 ± 0.019	0.955 ± 0.054	0.997 ± 0.073	0.876 ± 0.046	0.677 ± 0.051
SG43 HEADNECK	0.902 ± 0.22	1.04 ± 0.23	0.734 ± 0.16	0.715 ± 0.099	0.454 ± 0.079	0.323 ± 0.12	0.17 ± 0.051	0.0543 ± 0.014	1.05 ± 0.074	1.06 ± 0.1	0.772 ± 0.21	0.816 ± 0.14	0.387 ± 0.23	0.223 ± 0.027	0.265 ± 0.05	0.183 ± 0.0075
SNU475 LIVER	1.03 ± 0.05	1.01 ± 0.065	0.587 ± 0.06	0.255 ± 0.026	0.2 ± 0.033	0.16 ± 0.0044	0.169 ± 0.0055	0.174 ± 0.018	0.917 ± 0.0099	0.8847 ± 0.0057	0.88 ± 0.051	0.85 ± 0.041	0.9373 ± 0.0055	0.908 ± 0.024	0.869 ± 0.022	0.808 ± 0.058
T47D BREAST	0.981 ± 0.018	0.871 ± 0.016	0.551 ± 0.017	0.488 ± 0.01	0.374 ± 0.019	0.53 ± 0.035	0.2606 ± 0.0011	0.276 ± 0.011	0.926 ± 0.051	0.898 ± 0.024	0.922 ± 0.058	0.899 ± 0.037	0.973 ± 0.021	0.96 ± 0.012	0.893 ± 0.015	0.874 ± 0.031
SUM159 BREAST	0.968 ± 0.2	0.967 ± 0.19	0.953 ± 0.18	0.864 ± 0.17	0.194 ± 0.035	0.167 ± 0.077	0.131 ± 0.057	0.134 ± 0.05	0.973 ± 0.011	0.961 ± 0.028	0.948 ± 0.028	0.9347 ± 0.0076	0.9437 ± 0.0046	0.942 ± 0.022	0.916 ± 0.012	0.9197 ± 0.009

— the supplement of paper PMC6045584
